Strand notation (5' to 3'): a small letter for the sugar, then the base; units joined by * are phosphorothioate-linked, units joined directly phosphodiester-linked; [ ] holds rarer units or linkages, { } end groups; capitals alone tell only the bases. {Conj1a} = GalNAc carbohydrate conjugate Conj1a; l = locked nucleic acid (LNA); [5mC] = 5-methylcytosine; d = 2'-deoxy (DNA)
What was measured:
[1] = system: ApoB mRNA; assay: In vivo silencing of ApoB mRNA with monoGalNAc conjugates (branched DNA assay); conditions: Example 4; C57BL6 mice, single 1 mg/kg i.v., day 7; compared to unconjugated #12; FIG. 7a
Source text: Capital letters are LNA nucleosides (such as beta-D-oxy LNA), lower case letters are a DNA nucleoside. Subscript s represents a phosphorothioate internucleoside linkage (region A). LNA cytosines are optionally 5-methyl cytosine. The 2PO linker (region B) is 5′ to the sequence region A, and comprises of two DNA nucleosides linked by phosphodiester linkage, with the internucleoside linkage between the 3′ DNA nucleoside of region A and the 5′ LNA nucleoside of region A also being phosphodiester. A linkage group (Y) may be used to link the conjugate group, when present, to region B, or A (SEQ ID NO 8 and 11). To compare the monoGalNAc conjugates with different linkers and the GalNAc cluster C57BL6 mice were treated i.v. with saline control or with a single dose of 1 mg/kg of ASO conjugated to Mono-GalNAc either without biocleavable linker, with Dithio-linker (SS) or with DNA/PO-linker (PO) (FIG. 7a) or with 0.25 mg/kg of ASO conjugated to Mono-GalNAc or GalNAc cluster (FIG. 7b). After 7 days the animals were sacrificed and RNA was isolated from liver and kidney samples and analysed for ApoB mRNA expression.
C57BL6 mice were dosed i.v. with a single dose of 1 mg/kg or 0.25 mg/kg ASO formulated in saline or saline alone according to the above table. […] Total RNA was extracted from liver and kidney samples and ApoB mRNA levels were analysed using a branched DNA assay.

[2] = system: ApoB; assay: Non-human primate study, serum ApoB and LDL-C (ApoB conjugates); assay type: in vivo, cynomolgus monkeys; conditions: Example 7; single i.v. dose; FIG. 16
Experimental: The primary objective for this study is to investigate selected lipid markers over 7 weeks after a single slow bolus injection of anti-PCSK9 and anti-ApoB LNA conjugated to GalNac cluster (Conj2a) to cynomolgus monkeys and assess the potential toxicity of compounds in monkey. The compounds which were prepared in sterile saline (0.9%) at an initial concentration of 0.625 and 2.5 mg/ml).
Male (PCSK9) or female monkeys (ApoB) monkeys of at least 24 months old are used, and given free access to tap water and 180 g of MWM(E) SQC SHORT expanded diet (Dietex France, SDS, Saint Gratien, France) will be distributed daily per animal. The total quantity of food distributed in each cage will be calculated according to the number of animals in the cage on that day. In addition, fruit or vegetables will be given daily to each animal. The animals will be acclimated to the study conditions for a period of at least 14 days before the beginning of the treatment period. During this period, pre-treatment investigations will be performed. The animals are dosed i.v. at a dose if, for example, 0.25 mg/kg or 1 mg/kg. The dose volume will be 0.4 mL/kg. 2 animals are used per group. After three weeks, the data will be analyzed and a second group of animals using a higher or lower dosing regimen may be initiated—preliminary dose setting is 0.5 mg/kg and 1 mg/kg, or lower than that based on the first data set.
The dose formulations will be administered once on Day 1. Animals will be observed for a period of 7 weeks following treatment, and will be released from the study on Day 51. Day 1 corresponds to the first day of the treatment period. Clinical observations and body weight and food intake (per group) will be recorded prior to and during the study.
The following parameters will be determined for all surviving animals at the occasions indicated below: • full biochemistry panel (complete list below)—on Days −8, 15 and 50, • liver Safety (ASAT, ALP, ALAT, TBIL and GGT only)—on Days 4, 8, 22 and 36, • lipid profile (Total cholesterol, HDL-C, LDL-C and Triglycerides) and Apo-B only—on Days −1, 4, 8, 22, 29, 36, and 43.
Blood (approximately 1.0 mL) is taken into lithium heparin tubes (using the ADVIA 1650 blood biochemistry analyzer): Apo-B, sodium, potassium, chloride, calcium, inorganic phosphorus, glucose, HDL-C, LDL-C, urea, creatinine, total bilirubin (TBIL), total cholesterol, triglycerides, alkaline phosphatase (ALP), alanine aminotransferase (ALAT), aspartate aminotransferase (ASAT), creatine kinase, gamma-glutamyl transferase (GGT), lactate dehydrogenase, total protein, albumin, albumin/globulin ratio.
Other Analysis: WO2011009697 & WO2010142805 provides the methods for the following analysis: qPCR, PCSK9/ApoB mRNA analysis, Other analysis includes PCSK9/ApoB protein ELISA, serum Lp(a) analysis with ELISA (Mercodia No. 10-1106-01), tissue and plasma oligonucleotide analysis (drug content), Extraction of samples, standard- and QC-samples, Oligonucleotide content determination by ELISA. […] There was no indication of hepatotoxicity or nephrotoxicity with the ApoB targeting compounds.

[3] = system: HBV; assay: HBV mouse hydrodynamic tailvein injection model, HBV DNA in liver by qPCR; assay type: in vivo, Balb/C mouse
Source text: An LNA oligomer can be assessed for antiviral effect in vivo in a mouse strain, such as BALB/c or C57B/6, where HBV replication can be established by hydrodynamic tail vein injection of a plasmid, such as pAAV/HBV1.3, expressing a partially repeated HBV pregenomic RNA (J Virol. 1995 October; 69(10):6158-69) or pAAV2/HBV1.3, a derivative thereof (WuxiAppTech, Wuxi, China). The injection of the plasmid in a high volume of saline, equal to 8-12% of the body mass of the mouse, will result in the accumulation and expression of the viral pregenomic RNA in the liver, subsequently leading to the establishment of an acute HBV infection. Treatment of the animals with an LNA oligomer can be initiated 1 or more days before the injection of the plasmid or 1 day after the injection of the plasmid. Delivery of the LNA oligomer in saline can be done by intravenous or subcutaneous injection.
An in vivo experiment was performed on SEQ ID 55 and SEQ ID 56, the latter being a GalNAC conjugate of the former (conj1a). The LNA compounds were tested for efficacy against HBV in the mouse hydrodynamic tailvein injection model using the Balb/C mouse strain. LNA compounds were be tested at equimolar doses; 2 and 10 mg/kg, single injection (SEQ ID 55) and at 2.7 and 13.5 mg/kg, single injection (SEQ ID 56). The LNA anti-HBV compounds were compared to saline and to entecavir, an inhibitor of the HBV reverse transcriptase. Entecavir was dosed p.o. daily at 0.1 mg/kg. Where applicable, the animals were treated with the LNA compound 24 hours before the hydrodynamic injection. Entecavir was given in daily doses as described starting 24 hours after the hydrodynamic injection. […] All the animals were monitored on a daily basis for body weight changes and clinical signs for the duration of the in vivo study. […] All the blood samples were collected in tubes containing heparin sodium The portion of the left lobe of each liver was used to determine the level of HBV DNA replication by qPCR, as copies per unit weight of liver in which the quantity of total HBV DNA level is subtracted by the quantity of pAAV2/HBV DNA level. […]

| Substance | ApoB mRNA knock down, activity in the liver [1] | pharmacology (serum ApoB and LDL-C) [2] | also measured |
| --- | --- | --- | --- |
| SEQ ID NO 8: GsCsaststsgsgstsastsTsCsA, no cleavable linker, monoGalNAc; ApoB (GCATTGGTATTCA; sugars from the 5' end l2 d8 l3, all phosphorothioate, methylation of C not given here; monoGalNAc conjugated without cleavable linker) | clearly improved activity in the liver |  |  |
| SEQ ID NO 10: GsCsaststsgsgstsastsTsCsA, 2PO-DNA (5′ca3′), monoGalNAc; ApoB (CAGCATTGGTATTCA; listed as DNA, chemistry not fully specified) | clearly improved activity in the liver |  |  |
| SEQ ID NO 14: GsCsaststsgsgstsastsTsCsA, 2PO-DNA (5′ca3′), cholesterol; ApoB (CAGCATTGGTATTCA; chemistry not fully specified) |  | did not exhibit significant pharmacology |  |
| SEQ ID NO 17: GsTstsgsascsascstsgsTsC, GalNAc cluster Conj2a; ApoB (GTTGACACTGTC; listed as DNA, chemistry not fully specified) |  | effective | potency compared to the cholesterol conjugated compound [2]: considerably more potent than the cholesterol conjugated compound |
| SEQ ID NO 32: GsTstsgsascsascstsgsTsC, 2PO-DNA (5′ca3′), cholesterol; ApoB (CAGTTGACACTGTC; listed as DNA, chemistry not fully specified) |  | effective |  |
| SEQ ID NO 56: 5′-GsAsGsGscsastsasgscsasgs^mCsAsGsG-3′ with a 5′ GalNac(Conj1a) ({Conj1a}-lG*lA*lG*lG*dC*dA*dT*dA*dG*dC*dA*dG*l[5mC]*lA*lG*lG) |  |  | reduction in viral titer in the liver ([3]; 8 days after delivery of a single dose and 7 days after the initiation of the infection): 90%; effect on replication of HBV / HBV DNA level in the liver ([3]; Balb/C mice, single injection 24 hours before hydrodynamic injection, SEQ ID 55 2 and 10 mg/kg, SEQ ID 56 2.7 and 13.5 mg/kg): excellent dose-dependent antiviral effect |
